# Literature values, collected in PMC7524040 (Biochemistry, 2020).
# Ends that are not written are not given here.
# Tests used:
# [1] = tested on: cardiac heteromeric Kir3.1/3.4 channel; conditions: heteromeric Kir3.1/Kir3.4 channels
substance,measurement,setting,value
"Tertiapin (ALCNCNRIIIPHMCWKKCGKK; not fully specified (C-terminus, bridges); ends and bridges not checked; UniProt P56587 1-21, looked up) [TPN]",IC50,native IKACh channel,30 nM
same,decrease in the inhibitory action after air oxidation of M13,[1],4- to 5 fold
